# From patent publication US20130040935A1, “CYCLIC KETO-ENOLS FOR THERAPY” (BAYER INTELLECTUAL PROPERTY GMBH, priority 2010, published 2013)
# pIC50: −log10 of the molar value. Like-named read-outs stand apart in the source and are kept apart here.
# What was measured:
# [1] = target: T1, human ACC1 (acetyl-coenzyme A carboxylase alpha transcript variant 1) (Homo sapiens, UniProt Q13085); experiment: Human ACC1 enzyme assay, Assay B1 (ADP-Glo); type: biochemical
# T1 construct: FLAG (C); made in house; host or cells: baculovirus-infected insect cells (Hi5)
# [2] = target: human ACC2 (acetyl-coenzyme A carboxylase 2) (Homo sapiens, UniProt O00763); experiment: Human ACC2 enzyme assay, Assay B2 (ADP-Glo);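 further: human ACC2 activity read as ADP product, detected by luciferase glow luminescence after residual ATP removal, enzyme near 2 ng/µl in linear range, detection steps at 22 °C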
# Chain of human ACC2 (acetyl-coenzyme A carboxylase 2) (O00763 27-2458 limits assumed): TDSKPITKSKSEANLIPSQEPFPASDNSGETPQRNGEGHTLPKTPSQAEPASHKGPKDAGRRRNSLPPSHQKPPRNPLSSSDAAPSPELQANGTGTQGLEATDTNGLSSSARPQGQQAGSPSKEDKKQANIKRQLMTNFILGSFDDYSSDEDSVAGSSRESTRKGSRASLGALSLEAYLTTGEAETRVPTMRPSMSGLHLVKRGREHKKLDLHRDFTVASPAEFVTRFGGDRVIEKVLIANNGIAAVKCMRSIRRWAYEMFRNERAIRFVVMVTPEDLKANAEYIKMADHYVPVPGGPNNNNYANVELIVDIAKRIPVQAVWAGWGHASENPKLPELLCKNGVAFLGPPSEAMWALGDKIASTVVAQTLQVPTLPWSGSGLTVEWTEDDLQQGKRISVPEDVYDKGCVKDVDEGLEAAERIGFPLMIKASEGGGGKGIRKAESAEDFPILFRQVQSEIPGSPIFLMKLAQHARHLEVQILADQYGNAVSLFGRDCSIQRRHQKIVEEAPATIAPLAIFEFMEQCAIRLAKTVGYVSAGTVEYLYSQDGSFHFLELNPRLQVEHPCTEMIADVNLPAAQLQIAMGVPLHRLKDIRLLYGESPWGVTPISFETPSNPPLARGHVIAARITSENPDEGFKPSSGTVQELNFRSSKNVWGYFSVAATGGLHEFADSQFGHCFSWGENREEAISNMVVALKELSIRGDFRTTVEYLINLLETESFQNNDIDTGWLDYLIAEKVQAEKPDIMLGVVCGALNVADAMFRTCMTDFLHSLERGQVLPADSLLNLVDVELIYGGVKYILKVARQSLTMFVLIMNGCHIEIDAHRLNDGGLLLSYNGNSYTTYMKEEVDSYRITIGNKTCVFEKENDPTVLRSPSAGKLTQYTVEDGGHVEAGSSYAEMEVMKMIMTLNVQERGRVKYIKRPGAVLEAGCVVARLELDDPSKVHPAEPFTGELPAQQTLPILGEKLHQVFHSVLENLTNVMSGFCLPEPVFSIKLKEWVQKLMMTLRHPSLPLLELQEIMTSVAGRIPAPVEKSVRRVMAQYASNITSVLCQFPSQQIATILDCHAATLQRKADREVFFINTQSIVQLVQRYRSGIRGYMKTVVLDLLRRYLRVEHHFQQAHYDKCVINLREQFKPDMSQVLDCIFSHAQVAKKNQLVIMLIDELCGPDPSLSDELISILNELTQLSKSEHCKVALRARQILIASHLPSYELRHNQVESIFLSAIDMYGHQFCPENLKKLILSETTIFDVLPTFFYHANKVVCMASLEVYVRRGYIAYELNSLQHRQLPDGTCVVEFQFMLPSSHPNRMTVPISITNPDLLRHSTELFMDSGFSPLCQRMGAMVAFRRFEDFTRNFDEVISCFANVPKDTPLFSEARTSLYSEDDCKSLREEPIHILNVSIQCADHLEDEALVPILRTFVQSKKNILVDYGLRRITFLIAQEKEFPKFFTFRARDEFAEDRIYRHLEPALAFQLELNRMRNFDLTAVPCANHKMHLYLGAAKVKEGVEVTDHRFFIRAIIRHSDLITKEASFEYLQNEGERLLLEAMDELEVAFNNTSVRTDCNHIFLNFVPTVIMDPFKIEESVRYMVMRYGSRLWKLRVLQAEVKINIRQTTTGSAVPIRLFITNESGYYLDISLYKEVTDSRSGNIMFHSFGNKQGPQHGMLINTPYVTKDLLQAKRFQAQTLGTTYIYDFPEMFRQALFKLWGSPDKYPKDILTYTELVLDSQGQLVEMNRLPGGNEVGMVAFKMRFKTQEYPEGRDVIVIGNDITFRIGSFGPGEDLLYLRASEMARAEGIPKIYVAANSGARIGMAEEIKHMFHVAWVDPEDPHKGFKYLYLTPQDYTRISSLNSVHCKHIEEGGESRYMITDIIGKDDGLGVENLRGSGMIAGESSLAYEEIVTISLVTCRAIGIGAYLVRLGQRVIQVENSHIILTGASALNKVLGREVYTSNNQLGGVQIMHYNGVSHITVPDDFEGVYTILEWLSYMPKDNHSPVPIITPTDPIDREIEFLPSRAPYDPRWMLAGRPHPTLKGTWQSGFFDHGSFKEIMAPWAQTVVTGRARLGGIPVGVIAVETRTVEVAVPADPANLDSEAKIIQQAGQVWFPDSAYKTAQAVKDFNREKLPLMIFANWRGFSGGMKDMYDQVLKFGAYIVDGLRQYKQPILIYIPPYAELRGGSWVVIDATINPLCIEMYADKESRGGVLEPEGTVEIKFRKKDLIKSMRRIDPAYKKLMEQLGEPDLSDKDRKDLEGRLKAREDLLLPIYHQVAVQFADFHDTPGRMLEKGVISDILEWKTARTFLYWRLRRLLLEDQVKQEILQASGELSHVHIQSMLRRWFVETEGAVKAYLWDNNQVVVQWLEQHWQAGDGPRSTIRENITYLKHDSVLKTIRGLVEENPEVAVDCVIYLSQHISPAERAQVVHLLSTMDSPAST
# [3] = Assay B1, read-out: ACC 1 (=B1) IC50
# [4] = Assay B1, ADP-Glo, read-out: ACC 1 (=B1) IC50
SMILES,"pIC50 [1, 3]",pIC50 [2],pIC50 [1],"pIC50 [1, 4]"
"Cc1ccc(-c2ccc(Cl)cc2)cc1C1=C(O)C2(Cc3ccccc3C2)NC1=O [1-25, 4′-(4′-chloro-4-methylbiphenyl-3-yl)-3′-hydroxy-1,3-dihydrospiro[inden-2,2′-pyrrol]-5′(1′H)-one]",6.54,5.42,–,–
"Cc1ccc(-c2ccc(Cl)cc2)cc1C1=C(O)CN(C(C)C)C1=O [1-17, 3-(4′-chloro-4-methylbiphenyl-3-yl)-4-hydroxy-1-(propan-2-yl)-1,5-dihydro-2H-pyrrol-2-one]",–,4.94,6.26,–
"Cc1ccc(-c2ccc(Cl)cc2)cc1C1=C(O)C2(CC2)NC1=O [1-84, 6-(4′-chloro-4-methylbiphenyl-3-yl)-7-hydroxy-4-azaspiro[2.4]hept-6-en-5-one]",6.19,< 4.70,–,–
"Cc1ccc(-c2ccc(Cl)cc2)cc1C1=C(O)C2(CCC3(CCCO3)CC2)OC1=O (centres unmarked) [2-29, 3-(4′-chloro-4-methylbiphenyl-3-yl)-4-hydroxy-1,9-dioxadispiro[4.2.4.2]tetradec-3-en-2-one]",–,5.52,–,6.69
"Cc1ccc(-c2ccc(Cl)cc2)cc1C1=C(O)C2(CCC3(CC2)OCCCO3)NC1=O [1-59, 3-(4′-chloro-4-methylbiphenyl-3-yl)-4-hydroxy-9,13-dioxa-1-azadispiro[4.2.5.2]pentadec-3-en-2-one]",–,4.94,6.58,–
"Cc1ccc(-c2ccc(Cl)cc2)cc1C1=C(O)CN(C2CC2)C1=O [1-18, 3-(4′-chloro-4-methylbiphenyl-3-yl)-1-cyclopropyl-4-hydroxy-1,5-dihydro-2H-pyrrol-2-one]",6.01,4.79,–,–
"COCC1(C)NC(=O)C(c2cc(-c3ccc(Cl)cc3)ccc2C)=C1O (centres unmarked) [1-46, 3-(4′-chloro-4-methylbiphenyl-3-yl)-4-hydroxy-5-(methoxymethyl)-5-methyl-1,5-dihydro-2H-pyrrol-2-one]",–,< 4.70,5.95,–
"Cc1ccc(-c2ccc(Cl)cc2)cc1C1=C(O)C2(CCCCC2)OC1=O [2-10, 3-(4′-chloro-4-methylbiphenyl-3-yl)-4-hydroxy-1-oxaspiro[4.5]dec-3-en-2-one]",–,5.33,–,7.17
"CCCC1CCC2(CC1)NC(=O)C(c1cc(-c3ccc(Cl)cc3)ccc1C)=C2O (centres unmarked) [1-83, 3-(4′-chloro-4-methylbiphenyl-3-yl)-4-hydroxy-8-propyl-1-azaspiro[4.5]dec-3-en-2-one]",6.24,5.73,–,–
"COC1CCC2(CC1)SC(=O)C(c1cc(-c3ccc(Cl)cc3)ccc1C)=C2O (centres unmarked) [3-1, 3-(4′-chloro-4-methylbiphenyl-3-yl)-4-hydroxy-8-methoxy-1-thiaspiro[4.5]dec-3-en-2-one]",–,4.81,5.85,–
"Cc1ccc(-c2ccc(C(F)(F)F)cc2)cc1-c1c(O)c2ccc(Cl)cc2[nH]c1=O [9-6, 7-chloro-4-hydroxy-3-[4-methyl-4′-(trifluoromethy)biphenyl-3-yl]quinolin-2(1H)-one]",5.89,< 4.70,–,–
"Cc1ccc(-c2cccc(Cl)c2)cc1C1=C(O)C2(CCCCC2)CC1=O [6-3, 3-(3′-chloro-4-methylbiphenyl-3-yl)-4-hydroxyspiro[4.5]dec-3-en-2-one]",5.93,< 4.70,–,–
"O=C1NC2(CCC3(CC2)OCCO3)C(O)=C1c1cc(-c2ccc(Cl)cc2)ccc1Cl [1-61, 11-(4,4′-dichlorobiphenyl-3-yl)-12-hydroxy-1,4-dioxa-9-azadispiro[4.2.4.2]tetradec-11-en-10-one]",–,5.04,7.06,–
"Cc1cc(C)c(-c2c(O)c3ccc(Cl)cc3[nH]c2=O)cc1-c1ccc(Cl)cc1 [9-12, 7-chloro-3-(4′-chloro-4,6-dimethyl-biphenyl-3-yl)-4-hydroxyquinolin-2(1H)-one]",6.42,5.68,–,–
"O=C1NC2(CCC3(CC2)OCCCO3)C(O)=C1c1cc(-c2ccc(Cl)cc2)ccc1Cl [1-58, 3-(4,4′-dichlorobiphenyl-3-yl)-4-hydroxy-9,13-dioxa-1-azadispiro[4.2.5.2]pentadec-3-en-2-one]",–,4.70,6.36,–
"Cc1ccc(-c2ccc(Cl)cc2)cc1C1=C(O)C2(CCC3(CC2)OCC(C)(C)CO3)NC1=O [1-67, 3-(4′-chloro-4-methylbiphenyl-3-yl)-4-hydroxy-11,11-dimethyl-9,13-dioxa-1-azadispiro[4.2.5.2]pentadec-3-en-2-one]",6.04,5.28,–,–
"Cc1cc(C)c(-c2ccc(Cl)cc2)cc1C1=C(O)C2(CCCOC2)OC1=O (centres unmarked) [2-46, 3-(4′-chloro-4,6-dimethylbiphenyl-3-yl)-4-hydroxy-1,7-dioxaspiro[4.5]dec-3-en-2-one]",–,5.28,–,6.38
"Cc1ccc(-c2ccc(Cl)cc2)c(C)c1C1C(=O)N2CCOCCN2C1=O [8-8, 8-(4′-chloro-2,4-dimethylbiphenyl-3-yl)tetrahydro-7H-pyrazolo[1,2-d][1,4,5]oxadiazepine-7,9(8H)-dione]",–,< 4.70,5.88,–
"COCC1CCC2(CC1)OC(=O)C(c1cc(-c3ccc(Cl)cc3)ccc1Cl)=C2O (centres unmarked) [2-16, 3-(4,4′-dichlorobiphenyl-3-yl)-4-hydroxy-8-(methoxymethyl)-1-oxaspiro[4.5]dec-3-en-2-one]",–,5.27,6.86,–
"Cc1cc(C)c(-c2ccc(Cl)cc2)cc1C1=C(O)C2(CCOCC2)OC1=O [2-41, 3-(4′-chloro-4,6-dimethylbiphenyl-3-yl)-4-hydroxy-1,8-dioxaspiro[4.5]dec-3-en-2-one]",–,5.18,–,6.37

SMILES,"pIC50 [1, 3]",pIC50 [2],pIC50 [1],"pIC50 [1, 4]"
"COC1CCC2(CC1)NC(=O)C(c1cc(-c3ccc(Cl)c(Cl)c3)ccc1C)=C2O (centres unmarked) [1-81, 3-(3′,4′-dichloro-4-methylbiphenyl-3-yl)-4-hydroxy-8-methoxy-1-azaspiro[4.5]dec-3-en-2-one]",–,5.58,–,–
"CC1(C)OC(=O)C(c2cc(-c3ccc(Cl)cc3)ccc2Cl)=C(O)C1(C)C [10-1, 3-(4,4′-dichlorobiphenyl-3-yl)-4-hydroxy-5,5,6,6-tetramethyl-5,6-dihydro-2H-pyran-2-one]",–,–,5.97,–
"Cc1ccc(-c2ccc(F)c(F)c2)cc1C1=C(O)C2(CCCC2)OC1=O [2-22, 3-(3′,4′-difluoro-4-methylbiphenyl-3-yl)-4-hydroxy-1-oxaspiro[4.4]non-3-en-2-one]",–,–,–,5.65
"Cc1ccc(-c2ccc(F)cc2)cc1C1=C(O)C2(CCCCC2)OC1=O [2-21, 3-(4′-fluoro-4-methylbiphenyl-3-yl)-4-hydroxy-1-oxaspiro[4.5]dec-3-en-2-one]",–,–,6.06,–
"Cc1ccc(-c2ccc(Cl)cc2)cc1C1=C(O)C(C)(C)C(C)(C)OC1=O [10-2, 3-(4′-chloro-4-methylbiphenyl-3-yl)-4-hydroxy-5,5,6,6-tetramethyl-5,6-dihydro-2H-pyran-2-one]",–,–,6.12,–
"Cc1ccc(-c2ccc(Cl)cc2)cc1C1=C(O)C2(CCCOC2)OC1=O (centres unmarked) [2-9, 3-(4′-chloro-4-methylbiphenyl-3-yl)-4-hydroxy-1,7-dioxaspiro[4.5]dec-3-en-2-one]",–,–,5.65,–
"Cc1ccc(-c2ccc(F)cc2)cc1-c1c(O)c2ccc(F)cc2[nH]c1=O [9-9, 7 fluoro-3-(4′-fluoro-4-methylbiphenyl-3-yl)-4-hydroxyquinolin-2(1H)-one]",5.53,–,–,–
"Cc1ccc(-c2ccc(C)c(C3=C(O)C4(CCCOC4)NC3=O)c2)cc1 (centres unmarked) [1-14, 3-(4,4′-dimethylbiphenyl-3-yl)-4-hydroxy-7-oxa-1-azaspiro[4.5]dec-3-en-2-one]",–,–,5.51,–
Cc1ccc(-c2ccc(C(F)(F)F)cc2)cc1-c1c(O)c2ccc(F)cc2[nH]c1=O [9-10],5.85,–,–,–
"Cc1ccc(-c2ccc(Cl)cc2)cc1C1=C(O)C2(CC2)OC1=O [2-8, 6-(4′-chloro-4-methylbiphenyl-3-yl)-7-hydroxy-4-oxaspiro[2.4]hept-6-en-5-one]",–,–,–,5.70
"O=C1OC2(CCCCC2)C(O)=C1c1cc(-c2ccc(F)c(F)c2)ccc1Cl [2-25, 3-(4-chloro-3′,4′-difluorobiphenyl-3-yl)-4-hydroxy-1-oxaspiro[4.5]dec-3-en-2-one]",–,–,–,5.92
"CCOC1CCC2(CC1)NC(=O)C(c1cc(-c3cccc(Cl)c3)ccc1C)=C2O (centres unmarked) [1-79, 3-(3′-chloro-4-methylbiphenyl-3-yl)-8-ethoxy-4-hydroxy-1-azaspiro[4.5]dec-3-en-2-one]",–,–,5.63,–
"Cc1ccc(-c2ccc(F)cc2)c(C)c1C1C(=O)N2CCOCCN2C1=O [8-7, 8-(4′-fluoro-2,4-dimethylbiphenyl-3-yl)tetrahydro-7H-pyrazolo[1,2-d][1,4,5]oxadiazepine-7,9(8H)-dione]",–,–,5.21,–
"O=C1C(c2cc(-c3ccc(Cl)cc3)ccc2Cl)C(=O)N2C3CCC(C3)N12 (centres unmarked) [8-17, 2-(4,4′-dichlorobiphenyl-3-yl)tetrahydro-1H-5,8-methanopyrazolo[1,2-a]pyridazine-1,3(2H)-dione]",5.84,–,–,–
"O=C1NC2(CCOCC2)C(O)=C1c1cc(-c2ccc(F)cc2)ccc1Cl [1-41, 3-(4-chloro-4′-fluorobiphenyl-3-yl)-4-hydroxy-8-oxa-1-azaspiro[4.5]dec-3-en-2-one]",5.94,–,–,–
"Cc1ccc(-c2ccc(C)c(C3=C(O)C4(CCOCC4)NC3=O)c2)cc1 [1-15, 3-(4,4′-dimethylbiphenyl-3-yl)-4-hydroxy-8-oxa-1-azaspiro[4.5]dec-3-en-2-one]",6.28,–,–,–
"Cc1ccc(-c2ccc(Cl)cc2)cc1C1=C(O)CC(C)CC1=O (centres unmarked) [7-1, 2-(4′-chloro-4-methylbiphenyl-3-yl)-3-hydroxy-5-methylcyclohex-2-en-1-one]",–,–,6.03,–
"Cc1ccc(-c2ccc(Cl)cc2)cc1C1C(=O)N2CCCCN2C1=O [8-3, 2-(4′-chloro-4-methylbiphenyl-3-yl)tetrahydro-1H-pyrazolo[1,2-a]pyridazine-1,3(2H)-dione]",5.98,–,–,–
"CO[C@H]1CC[C@]2(CC1)NC(=O)C(c1cc(-c3ccc(F)cc3)ccc1Cl)=C2O [1-44, (5s,8s)-3-(4-chloro-4′-fluorobiphenyl-3-yl)-4-hydroxy-8-methoxy-1-azaspiro[4.5]dec-3-en-2-one]",–,–,5.77,–
